Tested on: human RIG-1 promoter (RIG-PROM-LUC reporter)
Assay: RIG-PROM-LUC luciferase reporter activity in response to inducers in transfected human cells
Format: cell-based

CC1=C(/C=C/C(C)=C/C=C/C(C)=C/C(=O)O)C(C)(C)CCC1 [retinoic acid, all Trans-retinoic acid]
activation of promoter activity (RIG-PROM-LUC) (FM516 and HeLa cells, IFN-β induction greater than PolyIC:PolyIC and least with retinoic acid, FIG. 2): robust activation | response of reporter compared to untreated controls (depending on the cell line (FM516, T47D, HeLa, PHFA), inducer 6 h then overnight incubation): around 1.5 fold
